Here are results for 3 compounds from patent US20260327216A1, “SUBSTITUTED OXAZOLONE COMPOUND FOR DECREASING LEVELS OF IKZF I-4 PROTEINS” (BRISTOL-MYERS SQUIBB COMPANY, priority 2023, published 2026).

Common to all, as to type: cell-based
The target in assay [1] is IKZF1 Ikaros (Homo sapiens, UniProt Q13422+Q96SW2). As to the kind of experiment: Jurkat Cellular Degradation Assay, IKZF1. Also noted: endogenous in cells. The following applies: Jurkat cells, 72 h; for Dmax: human, 100% = complete degradation, 0% = no detectable degradation, read-out: IKZF1 Ikaros max % deg. observed. The method, then: (§1) Jurkat cells were plated at 80,000 cells/well in 40 μL RPMI+10% FBS in a 384-well cell culture plate prior to using acoustic dispensing technology for adding a compound of interest. Cell cultures were incubated for 72 h at 37° C. and 5% CO2. In order to facilitate analysis, cell cultures were spun down at 200 rpm for 5 min and the supernatant was discarded. After shaking the plate to dislodge the cell pellet, cells were resuspended in 50 μL of Fixation Buffer (eBioscience FoxP3 buffer set 00-5523-00) for 60 min at room temperature. After centrifuging and discarding the supernatant, cells were permeabilized with 50 μL of Permeabilization buffer (eBioscience FoxP3 buffer set 00-5523-00) for 10 min at room temperature. Following permeabilization, cells were spun down and the supernatant was replaced with 20 μL fluorescently labelled antibodies against Helios, Ikaros and Aiolos or corresponding Isotype controls in 1× Permeabilization buffer (Ikaros-Alexa488 [Biolegend, Cat #368408, 1:50], Helios-PE [CST, Cat #29360, 1:50], Aiolos-Alexa647 [Biolegend, Cat #371106 Biolegend, 1:25]) and staining reactions were incubated for 1 h at room temperature while protected from light. Subsequently, 30 μL of 1× Permeabilization buffer was added prior to centrifuging the cells and discarding the supernatant. Stained cells were resuspended in 25 μL of flow cytometry staining buffer [PBS+0.2% bovine serum albumin (BSA)] and analyzed using an Intellicyt Ique Plus flow cytometer.
(§2) Table A-1 lists the maximum observed degradation of the IKZF1 protein, IKZF2 protein, and IKZF3 protein as measured in the Jurkat Cellular Degradation assay. The results in Table A-1 were rounded to two digits. In the Jurkat Cellular Degradation assay, a value of 100% indicated no detectable protein remaining or complete degradation of the protein; and a value of 0% indicated no detectable degradation of the protein by the test compound.

Assay [2] deals with T1, IKZF3 Aiolos (Homo sapiens, UniProt Q96SW2+Q9UKT9). As to the kind of experiment: Jurkat Cellular Degradation Assay, IKZF3. Also noted: endogenous in cells. To be noted: Jurkat cells, 72 h; for Dmax: human, 100% = complete degradation, 0% = no detectable degradation, read-out: IKZF3 Aiolos max % deg. observed. The method, then: as §1, §2
Assay [3] has as its target T1, IKZF3 Aiolos. Kind of assay: Human CD8^+ T Cell Reprogramming Assay, IKZF3. The following applies: human PBMC, CD8+ T cells, 24 hours; for Dmax / IKZF3 Aiolos Maximum Observed Degradation: 100% = complete degradation; for Dmax: read-out: IKZF3 Aiolos Maximum Observed Degradation. Also noted: Cryopreserved healthy donor human peripheral blood mononuclear cells (PBMC); endogenous in cells; host or cells: human PBMC from healthy donors (CD8+ T cells by flow cytometry). As to the method: Cryopreserved healthy donor human peripheral blood mononuclear cells (PBMC) from healthy donors were thawed and seeded at 500,000 cells/well of 96-well round bottom plates in RPMI 1640 media (Gibco) supplemented with 10% FBS, Pen/Strep (Gibco), MEM-NEAA (Gibco), and sodium pyruvate (Gibco). Cells were treated with titrated doses of compound for 24 hours at 37° C., 5% CO2 before analyzing by flow cytometry.
For flow cytometry staining, cells were washed twice with flow cytometry staining buffer (Thermo Fisher) and incubated in Human Tru-stain Fc block (Biolegend) for 10 minutes before adding eFluor780 viability dye (Thermo Fisher) and surface marker antibody cocktail containing LD-eFluor780, CD3-BUV-395, CD4-BUV805, CD8-FITC, and CD25-BV605 for 30 minutes at 4° C. Cells were then fixed and permeabilized by incubation with permeabilization buffer (eBioscience FoxP3 buffer set 00-5523-00) for 30 minutes at 4° C. as per the kit manufacturer's instructions. Cells were washed twice with the Perm/Wash buffer supplied in the kit as per the manufacturer's instructions and incubated overnight at 4° C. with an intracellular antibody cocktail comprised of antibodies specific for the transcription factors (i.e., Foxp3-BV421, HELIOS-PE-Cy7, EOS-PE, IKAROS-PECF594, AIOLOS-AF647). Cells were washed twice with Perm/Wash buffer and resuspended in flow cytometry staining buffer (Thermo Fisher) prior to acquisition. Sample acquisition and analysis was performed using a BD LSRFortessa (BD Biosciences) flow cytometer. Single-stain controls for each fluorochrome were prepared using UltraComp eBead Compensation Beads (Thermo Fisher). Data were analyzed using FlowJo version 10 and GraphPad Prism Software.
Table D-1 lists the maximum observed degradation of the IKZF1 protein and IKZF3 protein as measured in the Human CD8^+ T Cell Reprogramming assay. The results in Table D-1 were rounded to two digits. In the Human CD8^+ T Cell Reprogramming assay, a value of 100% indicated no detectable protein remaining or complete degradation of the protein; and a value of 0% indicated no detectable degradation of the protein by the test compound.

Where [4] appears, read: concentration reducing protein level by 50% vs DMSO.

T1 sequence (Q9UKT9 whole entry): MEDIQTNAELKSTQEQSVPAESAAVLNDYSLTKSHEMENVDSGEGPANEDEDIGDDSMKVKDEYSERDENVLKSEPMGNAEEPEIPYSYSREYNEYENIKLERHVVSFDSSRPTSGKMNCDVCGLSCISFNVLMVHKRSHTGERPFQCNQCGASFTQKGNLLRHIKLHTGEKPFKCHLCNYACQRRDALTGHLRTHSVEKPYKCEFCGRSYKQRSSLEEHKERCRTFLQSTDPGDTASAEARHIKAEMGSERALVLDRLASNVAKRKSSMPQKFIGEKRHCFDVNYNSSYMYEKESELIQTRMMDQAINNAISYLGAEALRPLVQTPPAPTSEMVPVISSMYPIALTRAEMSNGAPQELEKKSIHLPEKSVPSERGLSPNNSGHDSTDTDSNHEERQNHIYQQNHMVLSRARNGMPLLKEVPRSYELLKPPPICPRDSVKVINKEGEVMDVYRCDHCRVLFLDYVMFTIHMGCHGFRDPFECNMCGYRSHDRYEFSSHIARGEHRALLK
T1 sequence (Q96SW2 whole entry): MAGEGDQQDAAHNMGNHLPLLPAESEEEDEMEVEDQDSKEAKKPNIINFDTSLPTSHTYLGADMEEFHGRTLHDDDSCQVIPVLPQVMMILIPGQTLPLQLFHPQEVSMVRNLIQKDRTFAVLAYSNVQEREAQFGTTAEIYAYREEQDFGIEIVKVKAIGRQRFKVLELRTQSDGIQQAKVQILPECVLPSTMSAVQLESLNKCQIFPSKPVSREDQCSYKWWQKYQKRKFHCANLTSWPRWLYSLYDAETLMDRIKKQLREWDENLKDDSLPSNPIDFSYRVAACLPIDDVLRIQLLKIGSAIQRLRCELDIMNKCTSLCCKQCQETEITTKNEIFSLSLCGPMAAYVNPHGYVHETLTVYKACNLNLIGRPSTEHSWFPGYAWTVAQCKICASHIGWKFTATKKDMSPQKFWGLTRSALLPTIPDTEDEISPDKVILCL
T1 sequence (Q16531 whole entry partner): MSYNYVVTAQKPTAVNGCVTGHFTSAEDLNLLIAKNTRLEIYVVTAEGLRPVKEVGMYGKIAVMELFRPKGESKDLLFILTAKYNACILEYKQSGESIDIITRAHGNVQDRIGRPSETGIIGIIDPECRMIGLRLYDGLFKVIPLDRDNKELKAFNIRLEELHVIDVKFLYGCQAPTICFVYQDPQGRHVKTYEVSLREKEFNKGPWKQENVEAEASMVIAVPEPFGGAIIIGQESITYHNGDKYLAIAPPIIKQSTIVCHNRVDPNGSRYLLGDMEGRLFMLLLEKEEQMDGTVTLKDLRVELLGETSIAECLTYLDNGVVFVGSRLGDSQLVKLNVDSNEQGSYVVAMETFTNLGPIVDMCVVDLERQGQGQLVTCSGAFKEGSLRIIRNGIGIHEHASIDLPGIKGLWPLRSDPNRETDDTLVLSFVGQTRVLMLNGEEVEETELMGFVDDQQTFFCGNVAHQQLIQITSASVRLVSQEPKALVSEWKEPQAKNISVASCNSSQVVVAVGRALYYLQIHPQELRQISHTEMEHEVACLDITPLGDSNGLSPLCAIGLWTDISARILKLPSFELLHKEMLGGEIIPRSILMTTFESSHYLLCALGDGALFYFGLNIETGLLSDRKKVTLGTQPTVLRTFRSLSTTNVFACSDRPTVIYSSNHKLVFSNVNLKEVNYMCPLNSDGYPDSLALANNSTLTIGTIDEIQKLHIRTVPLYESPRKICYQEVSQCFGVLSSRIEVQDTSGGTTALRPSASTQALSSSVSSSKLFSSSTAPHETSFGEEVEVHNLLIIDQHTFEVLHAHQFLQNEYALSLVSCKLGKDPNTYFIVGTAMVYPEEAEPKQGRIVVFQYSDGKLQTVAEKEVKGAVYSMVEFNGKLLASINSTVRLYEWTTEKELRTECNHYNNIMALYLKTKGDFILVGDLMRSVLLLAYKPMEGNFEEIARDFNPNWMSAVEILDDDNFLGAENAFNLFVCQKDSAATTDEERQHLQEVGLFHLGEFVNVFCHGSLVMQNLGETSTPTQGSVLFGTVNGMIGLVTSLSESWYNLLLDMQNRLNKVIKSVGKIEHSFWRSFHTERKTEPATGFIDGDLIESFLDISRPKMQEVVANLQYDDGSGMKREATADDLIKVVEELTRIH
IKZF1 Ikaros, sequence (Q13422 whole entry): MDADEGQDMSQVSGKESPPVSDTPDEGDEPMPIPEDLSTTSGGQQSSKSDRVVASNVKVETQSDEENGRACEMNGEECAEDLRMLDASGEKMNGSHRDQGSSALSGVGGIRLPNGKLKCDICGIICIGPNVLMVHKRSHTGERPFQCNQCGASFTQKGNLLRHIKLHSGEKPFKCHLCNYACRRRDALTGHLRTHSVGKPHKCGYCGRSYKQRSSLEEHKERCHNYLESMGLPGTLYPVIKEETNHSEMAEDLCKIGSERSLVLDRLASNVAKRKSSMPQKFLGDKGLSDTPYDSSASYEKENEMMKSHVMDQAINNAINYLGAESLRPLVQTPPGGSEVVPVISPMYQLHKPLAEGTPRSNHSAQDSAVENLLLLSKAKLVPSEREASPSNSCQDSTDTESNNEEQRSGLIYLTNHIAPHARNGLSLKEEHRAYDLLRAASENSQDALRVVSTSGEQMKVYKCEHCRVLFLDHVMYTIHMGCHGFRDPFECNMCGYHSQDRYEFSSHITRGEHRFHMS
IKZF1 Ikaros, sequence (Q96SW2 whole entry): as the sequence (Q96SW2 whole entry) above
IKZF1 Ikaros, sequence (Q16531 whole entry partner): as the sequence (Q16531 whole entry partner) above

`O=C1CCC(n2cc(-c3ccc(Br)cc3F)oc2=O)C(=O)N1` (centres unmarked) [Comparative Compound B, 3-(5-(4-bromo-2-fluorophenyl)-2-oxooxazol-3(2H)-yl)piperidine-2,6-dione]: the Dmax in assay [1] was determined as 17%; in assay [2], 15%; in assay [3], 0%.
`Cc1cc(-c2ccc(-c3cn(C4CCC(=O)NC4=O)c(=O)o3)c(F)c2)nc(N)c1OC(F)F` (centres unmarked) [Example 1, 3-(5-(4-(6-Amino-5-(difluoromethoxy)-4-methylpyridin-2-yl)-2-fluorophenyl)-2-oxooxazol-3(2H)-yl)piperidine-2,6-dione]: the results for the DC50 in assay [1] (setting [4]), in assay [2] (setting [4]) and in assay [3] (setting [4]) were 749 nM, 9010 nM and 22 to 25 nM, respectively. For the same compound, the figures for the Dmax in assay [1], in assay [2] and in assay [3] were 70%, 52% and 69 to 74%, respectively. For the same compound, in assay [3] (1440 min), the “IKZF3 Aiolos Maximum Observed Degradation” value is listed as 69-74%.
As for `O=C1CCC(n2cc(-c3ccccc3)oc2=O)C(=O)N1` (centres unmarked) [Comparative Compound A, 3-(2-oxo-5-phenyloxazol-3(2H)-yl)piperidine-2,6-dione], the Dmax was 57% in assay [1], 46% in assay [2] and 80% in assay [3]. For the same compound, in assay [3], the “IKZF3 Aiolos Maximum Observed Degradation” value was 80%.
